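Each compound was tested at five concentrations against cells in 96-well plates for 48 hours. Abbreviation: GI50, concentration required for 50% inhibition of growth.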 The source made the active and inactive calls. Rule as the data show it: active = GI50 up to about 1.1 µM and inactive = higher.
Key:
Experiment in all cases: DTP human tumour cell line panel, 48 h
KM12 = tested on: KM12
UACC-257 = tested on: UACC-257
SF-539 = tested on: SF-539
MDA-MB-435 = tested on: MDA-MB-435
NCI-H522 = tested on: NCI-H522
ACHN = tested on: ACHN
HL-60 = tested on: HL-60
CCRF-CEM = tested on: CCRF-CEM
EKVX = tested on: EKVX
PC-3 = tested on: PC-3
K562 = tested on: K562
UACC-62 = tested on: UACC-62
SF-268 = tested on: SF-268
MDA-N = tested on: MDA-N
SW-620 = tested on: SW-620
NCI-H23 = tested on: NCI-H23
SK-OV-3 = tested on: SK-OV-3
SK-MEL-5 = tested on: SK-MEL-5
SR = tested on: SR
RPMI-8226 = tested on: RPMI-8226
SNB-75 = tested on: SNB-75
OVCAR-8 = tested on: OVCAR-8
786-0 = tested on: 786-0
BT-549 = tested on: BT-549
MCF7 = tested on: MCF7
SF-295 = tested on: SF-295
LOX IMVI = tested on: LOX IMVI
HOP-92 = tested on: HOP-92
MDA-MB-231 = tested on: MDA-MB-231
HCT-116 = tested on: HCT-116
SK-MEL-2 = tested on: SK-MEL-2
UO-31 = tested on: UO-31
SN12C = tested on: SN12C
NCI-H226 = tested on: NCI-H226
SK-MEL-28 = tested on: SK-MEL-28
HT-29 = tested on: HT-29
HCT-15 = tested on: HCT-15
HCC 2998 = tested on: HCC 2998
NCI-H460 = tested on: NCI-H460
OVCAR-3 = tested on: OVCAR-3
MOLT-4 = tested on: MOLT-4
CAKI-1 = tested on: CAKI-1
A498 = tested on: A498
IGROV-1 = tested on: IGROV-1
DU-145 = tested on: DU-145
A549 = tested on: A549
M14 = tested on: M14
OVCAR-5 = tested on: OVCAR-5
Malme-3M = tested on: Malme-3M
T47D = tested on: T47D
TK-10 = tested on: TK-10
NCI/ADR-RES = tested on: NCI/ADR-RES
HOP-62 = tested on: HOP-62
SNB-19 = tested on: SNB-19
RXF 393 = tested on: RXF 393
Hs-578T = tested on: Hs-578T
U-251 = tested on: U-251
COLO 205 = tested on: COLO 205
OVCAR-4 = tested on: OVCAR-4

## Nc1nc(N)c2nc(CNc3ccc(C(=O)O)cc3)[nH]c2n1
KM12
  GI50: > 100 µM (inactive)
UACC-257
  GI50: > 100 µM (inactive)
SF-539
  GI50: > 100 µM (inactive)
MDA-MB-435
  GI50: > 100 µM (inactive)
NCI-H522
  GI50: > 100 µM (inactive)
ACHN
  GI50: > 100 µM (inactive)
HL-60
  GI50: > 100 µM (inactive)
CCRF-CEM
  GI50: > 100 µM (inactive)
EKVX
  GI50: > 100 µM (inactive)
PC-3
  GI50: > 100 µM (inactive)
K562
  GI50: > 100 µM (inactive)
UACC-62
  GI50: > 100 µM (inactive)
SF-268
  GI50: > 100 µM (inactive)
MDA-N
  GI50: > 100 µM (inactive)
SW-620
  GI50: > 100 µM (inactive)
NCI-H23
  GI50: > 100 µM (inactive)
SK-OV-3
  GI50: > 100 µM (inactive)
SK-MEL-5
  GI50: > 100 µM (inactive)
SR
  GI50: > 100 µM (inactive)
RPMI-8226
  GI50: > 100 µM (inactive)
SNB-75
  GI50: > 100 µM (inactive)
OVCAR-8
  GI50: > 100 µM (inactive)
786-0
  GI50: > 100 µM (inactive)
BT-549
  GI50: > 100 µM (inactive)
MCF7
  GI50: > 100 µM (inactive)
SF-295
  GI50: > 100 µM (inactive)
LOX IMVI
  GI50: > 100 µM (inactive)
HOP-92
  GI50: > 100 µM (inactive)
MDA-MB-231
  GI50: > 100 µM (inactive)
HCT-116
  GI50: > 100 µM (inactive)
SK-MEL-2
  GI50: > 100 µM (inactive)
UO-31
  GI50: > 100 µM (inactive)
SN12C
  GI50: > 100 µM (inactive)
NCI-H226
  GI50: > 100 µM (inactive)
SK-MEL-28
  GI50: > 100 µM (inactive)
HT-29
  GI50: > 100 µM (inactive)
HCT-15
  GI50: > 100 µM
HCC 2998
  GI50: 27.9 µM (inactive)
NCI-H460
  GI50: > 100 µM (inactive)
OVCAR-3
  GI50: > 100 µM (inactive)
MOLT-4
  GI50: > 100 µM (inactive)
CAKI-1
  GI50: > 100 µM (inactive)
A498
  GI50: > 100 µM (inactive)
IGROV-1
  GI50: > 100 µM (inactive)
DU-145
  GI50: > 100 µM (inactive)
A549
  GI50: > 100 µM (inactive)
M14
  GI50: > 100 µM (inactive)
OVCAR-5
  GI50: > 100 µM (inactive)
Malme-3M
  GI50: > 100 µM (inactive)
T47D
  GI50: > 100 µM (inactive)
TK-10
  GI50: > 100 µM (inactive)
NCI/ADR-RES
  GI50: > 100 µM (inactive)
HOP-62
  GI50: > 100 µM (inactive)
SNB-19
  GI50: > 100 µM (inactive)
RXF 393
  GI50: > 100 µM (inactive)
Hs-578T
  GI50: > 100 µM (inactive)
U-251
  GI50: > 100 µM (inactive)
COLO 205
  GI50: > 100 µM (inactive)
OVCAR-4
  GI50: > 100 µM (inactive)

## CCO/C=C1\SC(=S)N(c2ccc(OCC)cc2)C1=O
KM12
  GI50: 50.8 µM (inactive)
UACC-257
  GI50: 78.7 µM (inactive)
SF-539
  GI50: 44.9 µM (inactive)
MDA-MB-435
  GI50: 78.5 µM (inactive)
NCI-H522
  GI50: 67.3 µM (inactive)
ACHN
  GI50: > 100 µM (inactive)
HL-60
  GI50: > 100 µM (inactive)
CCRF-CEM
  GI50: 54 µM (inactive)
EKVX
  GI50: > 100 µM (inactive)
PC-3
  GI50: 57.1 µM (inactive)
K562
  GI50: 44.6 µM (inactive)
UACC-62
  GI50: 68.4 µM (inactive)
SF-268
  GI50: > 100 µM (inactive)
MDA-N
  GI50: 45.2 µM (inactive)
SW-620
  GI50: > 100 µM (inactive)
NCI-H23
  GI50: > 100 µM (inactive)
SK-OV-3
  GI50: > 100 µM (inactive)
SK-MEL-5
  GI50: 76.7 µM (inactive)
SR
  GI50: 30.2 µM (inactive)
RPMI-8226
  GI50: 41.5 µM (inactive)
SNB-75
  GI50: 18.9 µM (inactive)
OVCAR-8
  GI50: > 100 µM (inactive)
786-0
  GI50: > 100 µM (inactive)
BT-549
  GI50: > 100 µM (inactive)
MCF7
  GI50: 75.5 µM (inactive)
SF-295
  GI50: 95.3 µM (inactive)
LOX IMVI
  GI50: 83.6 µM (inactive)
HOP-92
  GI50: 71.4 µM (inactive)
MDA-MB-231
  GI50: > 100 µM (inactive)
HCT-116
  GI50: > 100 µM (inactive)
SK-MEL-2
  GI50: 59.4 µM (inactive)
UO-31
  GI50: 54.5 µM (inactive)
SN12C
  GI50: > 100 µM (inactive)
NCI-H226
  GI50: 69.7 µM (inactive)
SK-MEL-28
  GI50: > 100 µM (inactive)
HT-29
  GI50: > 100 µM (inactive)
HCT-15
  GI50: 72.4 µM
HCC 2998
  GI50: 52.5 µM (inactive)
NCI-H460
  GI50: > 100 µM (inactive)
OVCAR-3
  GI50: > 100 µM (inactive)
MOLT-4
  GI50: 43.1 µM (inactive)
CAKI-1
  GI50: 55.7 µM (inactive)
A498
  GI50: 80.4 µM (inactive)
IGROV-1
  GI50: > 100 µM (inactive)
DU-145
  GI50: 51.4 µM (inactive)
A549
  GI50: > 100 µM (inactive)
M14
  GI50: 97.5 µM (inactive)
OVCAR-5
  GI50: > 100 µM (inactive)
Malme-3M
  GI50: 85.7 µM (inactive)
T47D
  GI50: 28.9 µM (inactive)
TK-10
  GI50: 90.4 µM (inactive)
NCI/ADR-RES
  GI50: > 100 µM (inactive)
HOP-62
  GI50: > 100 µM (inactive)
SNB-19
  GI50: > 100 µM (inactive)
RXF 393
  GI50: 33.3 µM (inactive)
Hs-578T
  GI50: 39.9 µM (inactive)
U-251
  GI50: 48 µM (inactive)
COLO 205
  GI50: > 100 µM (inactive)
OVCAR-4
  GI50: 57 µM (inactive)

Source: ChEMBL document CHEMBL1201862, “PubChem BioAssay data set” (2004)
